Data published in patent US20250354188A1, “METHOD FOR SYNTHESIZING CELOSIANIN II, METHOD FOR SYNTHESIZING BETAXANTHIN, AMYLOID-ß POLYMERIZATION INHIBITOR OR THERAPEUTIC OR PROPHYLACTIC AGENT FOR ALZHEIMER'S DISEASE, AMYLOID PEPTIDE AGGREGATION INHIBITOR, AND HIV-1 PROTEASE ACTIVITY INHIBITOR” (priority 2019, published 2025).

Key:
[1] = Stability of betalain pigment aqueous solutions at 37° C.; assay type: physicochemical; details: for red color after treatment: 4 days at 37° C.
Procedure: An aqueous solution of each of celosianin II, amaranthin, and betanin was evaluated for its stability at 37° C.
For each of betanin, amaranthin, and celosianin II, a 1 mM aqueous solution was prepared, and left to stand still in an incubator at 37° C. Absorbances at 536 nm on days 0, 1, 2, 3, and 4 were measured, and for the resultant values, relative amounts with respect to the absorbance on day 0 were calculated.

[2] = target: T1, human amyloid-β 1-40, Aβ40 (Homo sapiens, UniProt P05067); test: Observation of amyloid peptide aggregation using transmission electron microscope; assay type: biochemical; details: 25 μM Aβ40 + 50 μM sample, 5 days; for effect on polymerization and amorphous aggregation of amyloid fibrils (conclusion from TEM): 37° C.; for aggregation of the amyloid peptide observed by TEM: PBS pH 7.4, 37° C., dark
T1 construct: A lyophilized amyloid peptide (human amyloid-β 1-40, Aβ40) was purchased from Peptide Institute, Inc; purchased Peptide Institute, Inc
Procedure: A lyophilized amyloid peptide (human amyloid-β 1-40, Aβ40) was purchased from Peptide Institute, Inc., dissolved as a stock solution at a concentration of 1 mM using dimethyl sulfoxide, and stored at-20° C. until use.
As a betaxanthin, the betaxanthin extracted from the betaxanthin-producing BY2 cells (FIG. 10) was used.
With regard to reaction conditions, Aβ40 and a sample (betanin, amaranthin, celosianin II, ferulic acid, or the betaxanthin) were prepared with PBS (pH 7.4) so as to have a final concentration of 25 μM and a final concentration of 50 μM, respectively. As a control, distilled water was used in place of the sample. The prepared sample was left to stand still in a dark place at 37° C. for 5 days.
The sample after the reaction was stained on a grid mesh for a transmission electron microscope by adding about 2 μL of a 2% uranyl acetate solution thereto. After the solution had dried, the aggregation of the amyloid peptide was observed using a transmission electron microscope (Hitachi 7650 TEM).

[3] = test system: Transgenic nematodes (CL2006) expressing human amyloid-β 1-42, Aβ42; test: Paralysis test using transgenic nematodes expressing amyloid peptide; assay type: in vivo, Caenorhabditis elegans; details: fed with 50 μM betanin, compared to group fed with dextrin (control)
Procedure: In a transgenic nematode expressing an amyloid peptide, aggregates of the amyloid peptide are formed in the body along with its growth period, and the nematode is paralyzed. In view of this, whether feeding with betanin changed a paralysis ratio was evaluated.
Nematodes were grown using NGM plates (nematode growth medium), and grown using Escherichia coli (OP50 strain) as food under the condition of 15° C. unless otherwise indicated.
Transgenic nematodes (CL2006) expressing an amyloid peptide (human amyloid-β 1-42, Aβ42) were obtained from the Caenorhabditis Genetics Center (CGC), USA. The CL2006 expresses Aβ42 in the cells of the body wall muscle of the nematode, and then aggregation of the amyloid peptide occurs in the muscle. […]
The individuals grown to adults through the synchronized growth were transferred to NGM plates containing various concentrations (2 μM, 10 μM, and 50 μM) of food having mixed therein dextrin or betanin, and were grown. After the nematodes had been transferred, the nematodes were each evaluated for paralysis at constant intervals. […]
Paralysis was evaluated on the basis of the behavior of the nematode after the nose of the nematode had been lightly tapped with a platinum wire.

[4] = target: T2, β-Amyloid (1-40) (Homo sapiens, UniProt P05067); test: Amyloid-β polymerization inhibitory activity in Thioflavin T (ThT) assay; assay type: biochemical; details: sample 50 μM final; ThT fluorescence for 4 hours
T2 construct: SensoLyte Thioflavin T β-Amyloid (1-40) Aggregation Kit (ANASPEC); purchased ANASPEC
Procedure: ThT assay involved evaluating polymerization using SensoLyte Thioflavin T β-Amyloid (1-40) Aggregation Kit (ANASPEC) in accordance with an accompanying protocol.
As an apparatus used for measurement, Varioskan LUX (Thermo Fisher Scientific) was used, and fluorescence derived from the polymerization of amyloid-β was measured for 4 hours at intervals of 5 minutes. A sample was stirred for 15 seconds before each measurement and subjected to the measurement. An excitation wavelength of 440 nm and a detection wavelength of 484 nm were used.
The sample used for the ThT assay was prepared to have a final concentration of 50 μM before being used for the experiment. Tannic acid (Ono, K., Hasegawa, K., Naiki, H. & Yamada, M. (2004) Anti-amyloidogenic activity of tannic acid and its activity to destabilize Alzheimer's beta-amyloid fibrils in vitro. Biochim Biophys Acta 1690, 193-202.) was used as a control of an inhibitor.
The sample used for the ThT assay was prepared to have a final concentration of 50 μM before being used for the experiment. An extracted sample from the BY-2 cells having an empty vector introduced therein (VC) and water (PC) in place of a sample were used as controls. In addition, betanin and curcumin were used as positive controls. Curcumin is a plant-derived substance reported to have amyloid-β polymerization inhibitory activity (Yang F, Lim GP, Begum AN, et al. Curcumin inhibits formation of amyloid betaoligomers and fibrils, binds plaques, and reduces amyloid in vivo. J BiolChem. 2005; 280(7): 5892-5901. doi:10.1074/jbc.M404751200).

[5] = target: T3, recombinant HIV-1 protease (Human immunodeficiency virus type 1 group M subtype B, UniProt P04585); test: HIV-1 protease inhibitory activity (residual substrate peptide by HPLC); assay type: biochemical
T3 construct: A recombinant HIV-1 protease (ab84117) from Abcam was used as an HIV-1 protease; purchased Abcam ab84117
Procedure: A recombinant HIV-1 protease (ab84117) from Abcam was used as an HIV-1 protease, and an HIV-1 protease substrate (Lys-Ala-Arg-Val-Nle-p-nitro-Phe-Glu-Ala-Nle amide) from Sigma-Aldrich was used as a substrate peptide for the HIV-1 protease. HIV-1 protease activity evaluation was performed with reference to a previously reported method (Boso, G., Orvell, C. and Somia, N.V. (2015) The nature of the N-terminal amino acid residue of HIV-1 RNase H is critical for the stability of reverse transcriptase in viral particles. J. Virol. 89, 1286-1297.). Amaranthin, betanin, or celosianin II was added to 16 pmol of the HIV-1 protease and 4 nmol of the HIV-1 protease substrate, a buffer (25 mM NaCl, 25 mM Na2HPO4, 1 mM dithiothreitol, pH 4.7) was added so that the amount of a reaction liquid was 30 μl, and a reaction was performed at 25° C. for 2 hours. With regard to the addition amount of amaranthin, betanin, or celosianin II, amaranthin, betanin, and celosianin II were each added at the ratio of a 100-fold amount with respect to the amount of the HIV-1 protease. For celosianin II, the ratios of 25-and 50-fold amounts were further evaluated. An HIV-1 inhibitor saquinavir was used as a positive control.
After the reaction, the reaction liquid was measured for the amount of the residual substrate peptide through use of HPLC, and a residual ratio with respect to the substrate before the reaction was calculated. For the HPLC, LC-20AD from Shimadzu was utilized, and a Shim-pack GWS C18 column (5 μm; 200 mm×4.6 mm i.d.; Shimadzu GLC) was used as an analytical column. For an analytical solvent system, 0.05% TFA in water was used as solvent A and 0.05% TFA in acetonitrile was used as solvent B. An HPLC program was set to a linear gradient from 0% of solvent B at 0 minutes to 50% of solvent B at 50 minutes, and the HPLC was performed at a flow rate of 0.5 mL/min and 25° C. Analysis was performed with an analytical wavelength being set to 260 nm allowing the HIV-1 protease substrate peptide to be detected.

T2 sequence (P05067 672-711 limits assumed): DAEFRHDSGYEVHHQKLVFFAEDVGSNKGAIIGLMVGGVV
T1 sequence (P05067 672-711 limits assumed): as above

O=C(O)C1=C/C(=C/C=[N+]2/c3cc(O)c(OC4OC(CO)[C@@H](O)C(O)C4O)cc3CC2C(=O)[O-])CC(C(=O)O)N1 (stereo in doubt) [betanin]
red color after treatment ([1]; 1 mM aqueous solution): disappeared
effect on polymerization and amorphous aggregation of amyloid fibrils (conclusion from TEM) [2]: inhibiting both of the polymerization and amorphous aggregation of amyloid fibrils
aggregation of the amyloid peptide observed by TEM [2]: only short amyloid fibrils were observed
paralysis ratio [3]: significant amelioration (reduction) in paralysis ratio
amyloid-β polymerization inhibitory activity [4]: comparable to or higher than that of the existing inhibitor (tannic acid)

O=C(O)C1=C/C(=C/C=[N+]2c3cc(O)c(O[C@@H]4O[C@H](CO)[C@@H](O)[C@H](O)[C@H]4O[C@@H]4O[C@H](C(=O)O)[C@@H](O)[C@H](O)[C@H]4O)cc3C[C@H]2C(=O)[O-])C[C@@H](C(=O)O)N1 [amaranthin]
red color after treatment ([1]; 1 mM aqueous solution): disappeared
effect on polymerization and amorphous aggregation of amyloid fibrils (conclusion from TEM) [2]: inhibiting both of the polymerization and amorphous aggregation of amyloid fibrils
aggregation of the amyloid peptide observed by TEM [2]: only short amyloid fibrils were observed
amyloid-β polymerization inhibitory activity [4]: possessed inhibitory activity, though its effect was low as compared to celosianin II and betanin

COc1cc(/C=C/C(=O)O[C@H]2[C@H](O[C@H]3[C@H](Oc4cc5c(cc4O)[N+](=C/C=C4/C=C(C(=O)O)N[C@H](C(=O)O)C4)[C@H](C(=O)[O-])C5)O[C@H](CO)[C@@H](O)[C@@H]3O)O[C@H](C(=O)O)[C@@H](O)[C@@H]2O)ccc1O [celosianin II]
dependence of HIV-1 protease inhibitory activity on amount ([5]; 25-, 50- and 100-fold amounts with respect to HIV-1 protease): amount-dependent
HIV-1 protease activity inhibitory effect relative to amaranthin ([5]; 25-fold celosianin II vs 100-fold amaranthin): 4 times
HIV-1 protease inhibitory activity ([5]; celosianin II added in 25-fold amount with respect to HIV-1 protease, 25° C., 2 hours, pH 4.7): comparable to that in the case where a 100-fold amount of amaranthin was added
residual amounts of the betalain pigments (absorbance at 536 nm relative to day 0) ([1]; 1 mM aqueous solution, 37° C., days 0 to 4): more abundant than amaranthin and betanin
red color after treatment ([1]; 1 mM aqueous solution): still exhibited a red color
stability of aqueous solution ([1]; 37° C., compared to amaranthin and betanin): stable
effect on polymerization and amorphous aggregation of amyloid fibrils (conclusion from TEM) [2]: inhibiting both of the polymerization and amorphous aggregation of amyloid fibrils
aggregation of the amyloid peptide observed by TEM [2]: only short amyloid fibrils were observed
amyloid-β polymerization inhibitory activity [4]: comparable to or higher than that of the existing inhibitor (tannic acid)

COc1cc(/C=C/C(=O)O)ccc1O [ferulic acid]
effect on polymerization and amorphous aggregation of amyloid fibrils (conclusion from TEM) [2]: inhibiting both of the polymerization and amorphous aggregation of amyloid fibrils
aggregation of the amyloid peptide observed by TEM [2]: only short amyloid fibrils were observed
amyloid-β polymerization inhibitory activity [4]: weaker than those of celosianin II, the betanin pigment, and amaranthin
